Measured values from ChEMBL document CHEMBL1201862, “PubChem BioAssay data set” (2004).
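Values below derive from 48-hour exposures of cells grown in 96-well plates, with endpoints linearly interpolated between the two concentrations bracketing the appropriate inhibition level. GI50: concentration for 50% inhibition of growth.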 Calls of active or inactive are those of the source. Cut-off read from the data, not from the text of the source: active = GI50 up to about 1.1 µM and inactive = higher.

Assays:
Experiment in all cases: NCI anticancer screen, dose series, 48 h
NCI-H226 = test system: NCI-H226
786-0 = test system: 786-0
IGROV-1 = test system: IGROV-1
A549 = test system: A549
EKVX = test system: EKVX
HL-60 = test system: HL-60
M14 = test system: M14
COLO 205 = test system: COLO 205
U-251 = test system: U-251
NCI-H23 = test system: NCI-H23
SR = test system: SR
HOP-62 = test system: HOP-62
UO-31 = test system: UO-31
SW-620 = test system: SW-620
SNB-19 = test system: SNB-19
SK-MEL-2 = test system: SK-MEL-2

Structure (SMILES)	GI50 (NCI-H226)	GI50 (786-0)	GI50 (IGROV-1)	GI50 (A549)	GI50 (EKVX)	GI50 (HL-60)	GI50 (M14)	GI50 (COLO 205)	GI50 (U-251)	GI50 (NCI-H23)	GI50 (SR)	GI50 (HOP-62)	GI50 (UO-31)	GI50 (SW-620)	GI50 (SNB-19)	GI50 (SK-MEL-2)
CSc1nc2c(nc(N)n2C2OC(CO)C(O)C(O)C2O)c(=O)[nH]1 (configuration not stated)	> 100 µM (inactive)	> 100 µM (inactive)	> 100 µM (inactive)	> 100 µM (inactive)	> 100 µM (inactive)	> 100 µM (inactive)	> 100 µM (inactive)	> 100 µM (inactive)	> 100 µM (inactive)	> 100 µM (inactive)	> 100 µM (inactive)	> 100 µM (inactive)	> 100 µM (inactive)	> 100 µM (inactive)	> 100 µM (inactive)	–
O=C(OCc1ccccc1)n1cccc1	> 100 µM (inactive)	> 100 µM (inactive)	> 100 µM (inactive)	> 100 µM (inactive)	> 100 µM (inactive)	57.4 µM (inactive)	> 100 µM (inactive)	> 100 µM (inactive)	> 100 µM (inactive)	98.6 µM (inactive)	88.3 µM (inactive)	> 100 µM (inactive)	46.3 µM (inactive)	> 100 µM (inactive)	> 100 µM (inactive)	> 100 µM (inactive)
C/C(=N\NC(=S)NC(CCC(=O)O)C(=O)O)c1ccccn1 (configuration not stated)	> 100 µM (inactive)	> 100 µM (inactive)	> 100 µM (inactive)	> 100 µM (inactive)	> 100 µM (inactive)	> 100 µM (inactive)	> 100 µM (inactive)	> 100 µM (inactive)	> 100 µM (inactive)	> 100 µM (inactive)	> 100 µM (inactive)	> 100 µM (inactive)	> 100 µM (inactive)	> 100 µM (inactive)	> 100 µM (inactive)	> 100 µM (inactive)
O=C(Nc1ccccc1)OCc1nc2c([nH]1)C(=O)C=CC2=O	18.7 µM (inactive)	18.3 µM (inactive)	16.9 µM (inactive)	16.4 µM (inactive)	20.7 µM (inactive)	3.29 µM (inactive)	16 µM (inactive)	1.9 µM (inactive)	12.5 µM (inactive)	19.4 µM (inactive)	19.5 µM (inactive)	> 100 µM (inactive)	16.8 µM (inactive)	2.62 µM (inactive)	13.8 µM (inactive)	19.8 µM (inactive)
CCc1c(C#N)c(=O)[nH]c(=O)n1CCN1CCN(C(=O)NCCCCCCNC(=O)N2CCN(CCn3c(CC)c(C#N)c(=O)[nH]c3=O)CC2)CC1	–	> 100 µM (inactive)	> 100 µM (inactive)	> 100 µM (inactive)	> 100 µM (inactive)	> 100 µM (inactive)	> 100 µM (inactive)	> 100 µM (inactive)	> 100 µM (inactive)	–	–	> 100 µM (inactive)	–	> 100 µM (inactive)	> 100 µM (inactive)	–
CC1(Cc2ccccc2)NC(=S)NC1=O (configuration not stated)	> 100 µM (inactive)	> 100 µM (inactive)	–	> 100 µM (inactive)	> 100 µM (inactive)	> 100 µM (inactive)	> 100 µM (inactive)	> 100 µM (inactive)	> 100 µM (inactive)	> 100 µM (inactive)	> 100 µM (inactive)	> 100 µM (inactive)	> 100 µM (inactive)	> 100 µM (inactive)	> 100 µM (inactive)	> 100 µM (inactive)
CC(C)C1=CC23CCC4C(C)(C(=O)O)CCCC4(C)C2CC1C1C(=O)N(c2ccccc2)C(=O)C13 (configuration not stated)	15.5 µM (inactive)	55.2 µM (inactive)	37.2 µM (inactive)	31.6 µM (inactive)	–	95.9 µM (inactive)	40.5 µM (inactive)	24.3 µM (inactive)	36.6 µM (inactive)	> 100 µM (inactive)	> 100 µM (inactive)	51.3 µM (inactive)	43.7 µM (inactive)	54 µM (inactive)	46.9 µM (inactive)	20.1 µM (inactive)
CCC12C[N+]3([O-])CCc4c([nH]c5ccccc45)C(C(=O)OC)(c4cc5c(cc4OC)N(C)C4C(O)(C(=O)OC)C(OC(C)=O)C6(CC)C=CCN7CCC54C76)CC(C3)C1O2 (configuration not stated)	–	0.461 µM (active)	0.968 µM (active)	0.826 µM (active)	0.467 µM (active)	–	2.17 µM (inactive)	0.423 µM (active)	1.04 µM (active)	0.465 µM (active)	–	23.7 µM (inactive)	3.17 µM (inactive)	0.598 µM (active)	0.597 µM (active)	0.234 µM (active)
COC(=O)CCC12CCC(=O)C1[C@@H](C(=O)OC)C[C@H]2C(=O)OC (some centres not stated)	> 100 µM (inactive)	> 100 µM (inactive)	> 100 µM (inactive)	> 100 µM (inactive)	> 100 µM (inactive)	> 100 µM (inactive)	> 100 µM (inactive)	> 100 µM (inactive)	> 100 µM (inactive)	> 100 µM (inactive)	–	> 100 µM (inactive)	> 100 µM (inactive)	> 100 µM (inactive)	> 100 µM (inactive)	> 100 µM (inactive)
